Assays:
Experiment in all cases: drug sensitivity score (DSS3, normalised partial AUC of % inhibition dose-response) (DSS (score)); higher = more sensitive (stronger inhibition of viability); extreme values may be limits of the assay
FMOC25_1 = patient-derived low-grade serous ovarian cancer cells; settings: 72 h; library: FO4B; assay format: 2D, 384-well, CellTiter-Glo
Outline: (§1)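 On 384-well flat clear-bottom plates carrying compounds at five concentrations across a 10,000-fold range, patient-derived ovarian cancer cells below passage 10 were incubated for 72 h at 37 °C with 5% CO2. CellTiter-Glo readout of viability was processed in Breeze. A higher drug sensitivity score, defined as the partial area under the percent-inhibition dose-response curve divided by the log of the upper asymptote, means greater sensitivity.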

FMOC24 = patient-derived high-grade serous ovarian cancer cells; settings: 72 h; library: FO5A; assay format: 2D, 384-well, CellTiter-Glo
Outline: as §1

FMOC02_3 = patient-derived low-grade serous ovarian cancer cells; settings: 72 h; library: FO5A; assay format: 2D, 384-well, CellTiter-Glo
Outline: as §1

FMOC09 = patient-derived high-grade serous ovarian cancer cells; settings: 72 h; library: FO5A; assay format: 2D, 384-well, CellTiter-Glo
Outline: as §1

FMOC02_2 = patient-derived low-grade serous ovarian cancer cells; settings: 72 h; library: FO5A; assay format: 2D, 384-well, CellTiter-Glo
Outline: as §1

FMOC14 = patient-derived high-grade serous ovarian cancer cells; settings: 72 h; library: FO5A; assay format: 2D, 384-well, CellTiter-Glo
Outline: as §1

FMOC22 = patient-derived mucinous ovarian cancer cells; settings: 72 h; library: FO5A; assay format: 2D, 384-well, CellTiter-Glo
Outline: as §1

FMOC03 = patient-derived mucinous ovarian cancer cells; settings: 72 h; library: FO5A; assay format: 2D, 384-well, CellTiter-Glo
Outline: as §1

FMOC25_2 = patient-derived low-grade serous ovarian cancer cells; settings: 72 h; library: FO5A; assay format: 2D, 384-well, CellTiter-Glo
Outline: as §1

FMOC06 = patient-derived mucinous ovarian cancer cells; settings: 72 h; library: FO5A; assay format: 2D, 384-well, CellTiter-Glo
Outline: as §1

SMILES	drug sensitivity score (FMOC25_1)	drug sensitivity score (FMOC24)	drug sensitivity score (FMOC02_3)	drug sensitivity score (FMOC09)	drug sensitivity score (FMOC02_2)	drug sensitivity score (FMOC14)	drug sensitivity score (FMOC22)	drug sensitivity score (FMOC03)	drug sensitivity score (FMOC25_2)	drug sensitivity score (FMOC06)
S=c1[nH]cnc2nc[nH]c12 [Mercaptopurine]	1.6	0.85	0	0	0.2	0	0	0	1.8	0.3
COc1cc([C@@H]2c3cc4c(cc3[C@@H](O[C@@H]3O[C@@H]5CO[C@@H](C)O[C@H]5[C@H](O)[C@H]3O)[C@H]3COC(=O)[C@H]23)OCO4)cc(OC)c1O [Etoposide]	2.8	1.9	2.7	5.6	1.4	1.7	6.1	1.7	2.9	3.5
CC1(COc2ccc3c(c2)ncn3-c2ccc3cccc(N4CCC(N)CC4)c3n2)COC1 [Crenolanib]	4.3	9.25	4.6	3	6.1	4.4	5	4.4	4.8	4.4
O=C(O)C(=O)O.[NH-][C@@H]1CCCC[C@H]1[NH-].[Pt+2] [Oxaliplatin]	8.9	11.3	9.9	14.9	7.5	6.8	9.6	8.8	5.7	7
CC1(C)CCC(c2ccc(Cl)cc2)=C(CN2CCN(c3ccc(C(=O)NS(=O)(=O)c4ccc(N[C@H](CCN5CCOCC5)CSc5ccccc5)c(S(=O)(=O)C(F)(F)F)c4)cc3)CC2)C1 [Navitoclax]	14.7	21.1	21.9	0	21.7	7.3	4.8	6.9	23.2	6.6
FC(F)c1nc2ccccc2n1-c1nc(N2CCOCC2)nc(N2CCOCC2)n1 [ZSTK474]	15.6	4.65	18.4	11.8	16.9	9.8	5.6	10.6	16.8	12.5
CC(C)c1cc(C(=O)N2Cc3ccc(CN4CCN(C)CC4)cc3C2)c(O)cc1O [Onalespib]	12	5.45	14	9	12.6	9	8.1	12.2	15.4	6
CN1CCN(c2cc(C(=O)Nc3ccc4c(c3)-c3c(c(C(N)=O)nn3-c3ccc(F)cc3)CC4)c(Cl)cn2)CC1 [PHA 408]	0.6	9	6.8	4.8	4	4	4.6	5.2	11	4.6
CC(C)NC[C@@H](C(=O)N1CCN(c2ncnc3c2[C@H](C)C[C@H]3O)CC1)c1ccc(Cl)cc1 [Ipatasertib]	7	3	14.3	0.1	7.8	2.8	2.1	1	7.4	4
CCS(=O)(=O)N1CCN(c2ccc(Nc3ncc(C(N)=O)c(NC4CC4)n3)cc2)CC1 [Cerdulatinib]	4	3.3	0	0	0	3.4	0	0	10.6	0
Cc1cc(Nc2cc(CN3CCOCC3)c3nc(C)c(Cc4ccc(Cl)cc4F)n3n2)n[nH]1 [Gandotinib]	3.7	7.6	10.1	5.1	16.3	6.1	1.8	4.7	18.8	8.9
CCCCCCCCc1ccc(CCC(N)(CO)CO)cc1 [Fingolimod]	6.2	10.8	6.1	6	7.7	7.3	5.3	5.1	5.7	7
CCNC(=O)c1noc(-c2cc(C(C)C)c(O)cc2O)c1-c1ccc(CN2CCOCC2)cc1 [Luminespib]	10.9	9.4	23	16.9	19.8	13	13.2	10.8	23.6	3.2
C=CC(=O)N1CCC[C@@H](n2nc(-c3ccc(Oc4ccccc4)cc3)c3c(N)ncnc32)C1 [Ibrutinib]	5.6	0.5	7.3	6	10.2	2.7	0	8.8	6.5	0.3
COc1cccc(OCCCN)c1-c1cc(Nc2cnc(C#N)cn2)n[nH]1 [Prexasertib]	15.3	24.7	18.6	19.5	15.1	22.6	19.6	11.8	19.1	12.6
Nc1ccccc1NC(=O)c1ccc(CNC(=O)OCc2cccnc2)cc1 [Entinostat]	4.3	8.4	7.5	1.6	8.6	8.6	5	8.2	3.7	7.6

SMILES	drug sensitivity score (FMOC25_1)	drug sensitivity score (FMOC24)	drug sensitivity score (FMOC02_3)	drug sensitivity score (FMOC09)	drug sensitivity score (FMOC02_2)	drug sensitivity score (FMOC14)	drug sensitivity score (FMOC22)	drug sensitivity score (FMOC03)	drug sensitivity score (FMOC25_2)	drug sensitivity score (FMOC06)
CC[C@H](NC(=O)[C@H](C)NC)C(=O)N1C[C@@H](O)C[C@H]1Cc1c(-c2[nH]c3cc(F)ccc3c2C[C@@H]2C[C@H](O)CN2C(=O)[C@H](CC)NC(=O)[C@H](C)NC)[nH]c2cc(F)ccc12 [Birinapant]	1.1	21.2	0	0	0	4.5	0	0	8.3	3.9
Cc1nc(=O)c2cc(CN(C)c3ccc(C(=O)N[C@@H](CCC(=O)O)C(=O)O)s3)ccc2[nH]1 [Raltitrexed]	0.1	0.05	0	0	0	0.3	3.8	1.5	1.3	0
COc1cc(Nc2ncc3c(n2)-c2ccc(Cl)cc2C(c2c(F)cccc2OC)=NC3)ccc1C(=O)O [Alisertib]	0.9	1	5.8	2.3	4.8	0.7	2.2	4.7	2.3	1.3
COC[C@H](NC(=O)c1cnc(C)s1)C(=O)N[C@@H](COC)C(=O)N[C@@H](Cc1ccccc1)C(=O)[C@@]1(C)CO1 [Oprozomib]	14.6	20.9	15.1	10.6	13.1	19.5	16.6	17.3	20.4	12.9
CO[C@H]1C[C@@H]2CC[C@@H](C)[C@@](O)(O2)C(=O)C(=O)N2CCCC[C@H]2C(=O)O[C@H]([C@H](C)C[C@@H]2CC[C@@H](OP(C)(C)=O)[C@H](OC)C2)CC(=O)[C@H](C)/C=C(\C)[C@@H](O)[C@@H](OC)C(=O)[C@H](C)C[C@H](C)/C=C/C=C/C=C/1C [Ridaforolimus]	10.3	0	13.8	4.2	11.1	3.4	9.3	4.5	11.8	5.7
O=C(NOC[C@H](O)CO)c1ccc(F)c(F)c1Nc1ccc(I)cc1F	7	0.2	7	8	10.4	0.2	7.5	11.5	5.2	11.3
O=C1c2c(O)ccc(O)c2C(=O)c2c(NCCNCCO)ccc(NCCNCCO)c21 [Mitoxantrone]	0.3	3.45	5.9	8.8	4	3.2	6	2.7	7	1.9
CCCCC(=O)OCC(=O)[C@]1(O)Cc2c(O)c3c(c(O)c2[C@@H](O[C@H]2C[C@H](NC(=O)C(F)(F)F)[C@H](O)[C@H](C)O2)C1)C(=O)c1c(OC)cccc1C3=O [Valrubicin]	9.1	7	9.2	7.1	6.8	5.1	7.8	5.3	9	6.5
CC(C)[C@H]1C(=O)N[C@@H](CCCNC(=N)N)C(=O)NCC(=O)N[C@@H](CC(=O)O)C(=O)N[C@H](Cc2ccccc2)C(=O)N1C [Cilengitide]	0	2.4	1.3	4.3	0	1.9	0	0.1	0	0
Cc1ncc(-c2ccnc(Nc3ccc(S(C)(=O)=O)cc3)n2)n1C(C)C [AZD-5438]	8.1	13.6	15.2	3.4	12.4	9.7	7	7.5	12.8	8.2
COc1cccc2c1C(=O)c1c(O)c3c(c(O)c1C2=O)C[C@@](O)(C(=O)CO)C[C@@H]3O[C@H]1C[C@H](N)[C@H](O)[C@H](C)O1 [Doxorubicin]	7.7	5.65	7.2	6.5	2.9	3.6	4.5	2.6	8	4.3
Nc1ncnc2c1nc(Cl)n2[C@@H]1O[C@H](CO)[C@@H](O)[C@H]1O [8-chloro-adenosine]	11.4	6	18.2	5.5	19.7	3.3	3.2	2.4	15.2	4.1
C#Cc1cccc(Nc2ncnc3cc(OCCOC)c(OCCOC)cc23)c1 [Erlotinib]	11.7	3.6	15.1	11	15.7	3.7	1.8	14.7	14.1	3
Cc1nc(-c2cn3c(n2)-c2ccc(-c4cnn(C(C)(C)C(N)=O)c4)cc2OCC3)n(C(C)C)n1 [Taselisib]	8.2	0.85	12.2	10.1	12.7	4.3	2.9	4.5	8.6	9.6
CCN(CC)CCCC(C)Nc1ccnc2cc(Cl)ccc12 (stereo not given) [Chloroquine]	7.1	10.2	9.4	6	10.1	7.6	5.6	7.8	7	7.2
Cn1c(=O)n(-c2ccc(C(C)(C)C#N)cc2)c2c3cc(-c4cnc5ccccc5c4)ccc3ncc21 [Dactolisib]	22.7	11.1	23	14.4	22.1	13.1	13	16.2	23.2	15.6
